The subject of one assay is L. fermentum ATCC 14931. The assay is described as follows: Lactobacilli susceptibility, broth microdilution (ISO 10932/IDF 233). The following applies: Limosilactobacillus fermentum. The assay is classed as cell-based, Lactobacillus fermentum. On the procedure:
(§1) To assess the effect of antibacterial peptides on lactobacilli, Lactobacillus acidophilus ATCC 4356, Lactobacillus casei ATCC 393, Lactobacillus fermentum ATCC 14931, and Lactobacillus rhamnosus ATCC 7469 strains (from American Type Culture Collection) were used. Before performing the test, cultures were streaked on Lactobacilli MRS agar (MRS) and incubated for 24 h at 37 °C in an anaerobic chamber (BD Difco, Detroit, MI, USA). Antibacterial susceptibility testing was performed according to the ISO 10932/IDF 233 standard (ISO, 2010). […] Typically, a twofold serial dilution of stock solutions was performed in Lactobacilli MRS broth to obtain solutions in the 0.2–100 µM concentration range. Bacterial inocula were prepared by suspending colonies, from 24 h incubated Lactobacilli MRS agar plates, into 2 mL of 0.85% NaCl solution. […] MIC values were estimated after incubating the plates under anaerobic conditions at 37 °C for 48 h.

For the next assay, the system named is L. casei ATCC 393. The assay is described as above. The assay is classed as cell-based, Lactobacillus casei. Conditions: Lacticaseibacillus casei. As to the method:
as §1

Another assay concerns L. acidophilus ATCC 4356. The description is as above. In kind it is cell-based. The following applies: Lactobacillus acidophilus. As to the method: as §1
A further assay concerns L. rhamnosus ATCC 7469. The assay is described as above. In kind it is cell-based, Lactobacillus rhamnosus. Conditions: Lacticaseibacillus rhamnosus. On the procedure:
as §1

The subject of assay [1] is Salmonella enteritidis 706 RIVM. In kind it is cell-based. The following applies: control antibiotic; broth microdilution, Nutrient Broth 0.5×, overnight 37 °C. On the procedure:
(§2) MIC (Minimum Inhibitory Concentration) analyses were performed on Gram-positive and Gram-negative bacteria by a broth microdilution method previously described, with minor modifications. In details, assays were carried out in Nutrient Broth 0.5× (Difco, Detroit, MI, USA) using sterile 96-well polypropylene microtiter plates (cat. 3879, Costar Corp., Cambridge, MA, USA). Bacterial strains were grown in Luria–Bertani (LB) medium overnight at 37 °C and then diluted in nutrient broth at a final concentration of ~ 5 × 10^5 CFU/mL per well. […] Peptide concentrations were determined by spectrophotometric analysis using the extinction coefficients calculated by the ProtParam tool (http://web.expasy.org/protparam/). Twofold serial dilutions of peptides were carried out in the test wells (0.2–100 μM concentration range). Plates were incubated overnight at 37 °C. MIC value was taken as the lowest concentration at which growth was inhibited. Three independent experiments were performed for each MIC value. The peptide antibiotic polymyxin B and vancomycin (Sigma, St. Louis, MO) were tested as control. MIC values were measured on: Pseudomonas aeruginosa PAO1, Acinetobacter baumanii ATCC 17878, Escherichia coli ATCC 25922, Salmonella typhimurium ATCC 14028, Salmonella enteritidis 706 RIVM (kindly provided by Prof. E. Veldhuizen, Utrecht University, Holland), Staphylococcus aureus ATCC 6538P, and Enterococcus faecalis ATCC 29212.

The test system of assay [2] is Acinetobacter baumanii ATCC 17878. The assay is classed as cell-based. The following applies: control antibiotic; broth microdilution, Nutrient Broth 0.5×, overnight 37 °C. On the procedure: as §2
The subject of assay [3] is Pseudomonas aeruginosa PAO1. The assay is classed as cell-based. The following applies: control antibiotic; broth microdilution, Nutrient Broth 0.5×, overnight 37 °C. As to the method:
as §2

The subject of assay [4] is Salmonella typhimurium ATCC 14028. In kind it is cell-based. On the procedure:
as §2

For assay [5], the system named is Escherichia coli ATCC 25922. The assay is classed as cell-based. As to the method: as §2
Assay [6] has as its system Enterococcus faecalis ATCC 29212. Description: microbe, parasite or virus in culture. The assay is classed as cell-based. On the procedure: as §2
The subject of assay [7] is selected Gram-positive and Gram-negative strains. The assay is described as follows: Antimicrobial activity of mucosal peptides on selected strains. The assay is classed as cell-based. Conditions: summary of Table 3. On the procedure: as §2, with “The peptide antibiotic polymyxin B and vancomycin (Sigma, St. Louis, MO) were tested as control.” left out
Assay [8] has as its system Escherichia coli ATCC 25922. The assay is classed as cell-based. As to the method:
The Minimum Bactericidal Concentration (MBC) was determined from the broth dilution of MIC tests by subculturing cell mixtures on agar plates. The MBC was defined as the lowest concentration of antibacterial agent that kills ≥ 99.9% of bacterial cells. According to a widely accepted criterion, peptides were considered bactericidal if their MBC was no more than four times the MIC.
The source holds these as a separate data set.

Setting [9] is: control antibiotic, broth microdilution, Nutrient Broth 0.5×, overnight 37 °C.

The results in this text go back to publication PMC8038955, “Antimicrobial D-amino acid oxidase-derived peptides specify gut microbiota” (Cellular and Molecular Life Sciences: CMLS, 2021).

Converted amounts (≈) assume the structure as drawn. Where two headings read alike, the source gives them in different places. Where a SMILES comes first, the peptide text is derived from it. Bridges are numbered along the chain shown (N, C = ends). Where no end group is shown, it is not given here. [ ]: non-standard residue; d: D form. The star is where a group is joined. X1 = CC[C@H](C)CCCCC(=O)*; Dab = NCC[C@H](N)C(=O)O

For the molecule `CC[C@H]1OC(=O)[C@H](C)[C@@H](O[C@H]2C[C@@](C)(OC)[C@@H](O)[C@H](C)O2)[C@H](C)[C@@H](O[C@@H]2O[C@H](C)C[C@H](N(C)C)[C@H]2O)[C@](C)(O)C[C@@H](C)C(=O)[C@H](C)[C@@H](O)[C@]1(C)O` [Erythromycin], the MIC in the assay on L. fermentum ATCC 14931 (ATCC14931, Lactobacilli MRS broth, 3–8 × 10^5 CFU/mL, anaerobic, 37 °C, 48 h, 0.2–100 µM range, read-out: MIC) turned out to be 1.4 µM (≈ 1.03 µg/mL); in the assay with L. casei ATCC 393 (ATCC393, Lactobacilli MRS broth, 3–8 × 10^5 CFU/mL, anaerobic, 37 °C, 48 h, 0.2–100 µM range, read-out: MIC), 2.8 µM (≈ 2.06 µg/mL); in the assay on L. acidophilus ATCC 4356 (ATCC4356, Lactobacilli MRS broth, 3–8 × 10^5 CFU/mL, anaerobic, 37 °C, 48 h, 0.2–100 µM range, read-out: MIC), 0.7 µM (≈ 0.514 µg/mL); in the assay on L. rhamnosus ATCC 7469 (ATCC7469, Lactobacilli MRS broth, 3–8 × 10^5 CFU/mL, anaerobic, 37 °C, 48 h, 0.2–100 µM range, read-out: MIC) it was 0.7 µM (≈ 0.514 µg/mL).

As to `CC[C@H](C)CCCCC(=O)N[C@@H](CCN)C(=O)N[C@H](C(=O)N[C@@H](CCN)C(=O)N[C@H]1CCNC(=O)[C@H]([C@@H](C)O)NC(=O)[C@H](CCN)NC(=O)[C@H](CCN)NC(=O)[C@H](CC(C)C)NC(=O)[C@@H](Cc2ccccc2)NC(=O)[C@H](CCN)NC1=O)[C@@H](C)O` [Polymyxin B, polymyxin B] (X1-[Dab]T[Dab][Dab][Dab][dF]L[Dab][Dab]T; lactam 4-C (inferred); N-terminus assumed), the MIC in assay [1] was 0.5 µg/mL (≈ 0.415 µM); in assay [2], 0.5 µg/mL (≈ 0.415 µM); in assay [3], 0.25 µg/mL (≈ 0.208 µM); in assay [4] (setting [9]), 0.12 µg/mL; in assay [5] (setting [9]) it was 0.5 µg/mL.

Take `CN[C@H](CC(C)C)C(=O)N[C@H]1C(=O)N[C@@H](CC(N)=O)C(=O)N[C@H]2C(=O)N[C@H]3C(=O)N[C@H](C(=O)N[C@H](C(=O)O)c4cc(O)cc(O)c4-c4cc3ccc4O)[C@H](O)c3ccc(c(Cl)c3)Oc3cc2cc(c3O[C@@H]2O[C@H](CO)[C@@H](O)[C@H](O)[C@H]2O[C@H]2C[C@](C)(N)[C@H](O)[C@H](C)O2)Oc2ccc(cc2Cl)[C@H]1O` [Vancomycin, vancomycin]: the MIC in the assay with L. fermentum ATCC 14931 (ATCC14931, 48 h) is above 100 µM; against L. casei ATCC 393 (ATCC393, 48 h), above 100 µM; in the assay with L. acidophilus ATCC 4356 (ATCC4356, 48 h) it was above 100 µM; against L. rhamnosus ATCC 7469 (ATCC7469, 48 h), above 100 µM; in assay [6] (Enterococcus faecalis, ATCC29212), 2 µg/mL.

Regarding EAANLFGKILEEKKLSRLPPSHL [EAA], in [7], the “antibacterial activity (in words)” value is “did not show any antibacterial activity”. The MIC in [4] (ATCC 14028) and in assay [6] (ATCC 29212) was above 200 µM in each case.

Consider LKNARIVGELTGFRPVRPQVRLE [LKN], for which the MIC in assay [4] (ATCC 14028) was above 200 µM; in [5] (ATCC 25922), 50 µM; in assay [6] (ATCC 29212), above 200 µM. Besides, the MBC in [8] amounted to 50 µM.
